Assay [1] can be described thus: Reduction of high glucose-induced apoptosis in REC (unknown origin) assessed as decrease in caspase 3 level at 0.05 to 10 uM after 30 to 60 mins by ELISA. The class given is functional. For orientation: An ELISA detects its analyte on a solid surface through an enzyme-linked reagent.
Assay [2] is filed under the species Rattus norvegicus. The assay is described as follows: Reduction of high glucose-induced apoptosis in rat rMC-1 cells assessed as decrease in caspase 3 level at 0.05 to 10 uM after 1 to 24 hrs by ELISA. Type of assay: functional, cell-based.
Assay [3] is described as follows: Antiinflammatory activity in REC (unknown origin) assessed as increase of high glucose-induced TNFalpha level at 0.05 to 10 uM after 30 to 60 mins by ELISA. Type of assay: functional.
Assay [4] is filed under the species Rattus norvegicus. Put plainly: Antiinflammatory activity in rat rMC-1 cells assessed as decrease of high glucose-induced TNFalpha level at 0.05 to 10 uM after 1 to 24 hrs by ELISA. Type of assay: functional, cell-based.
Assay [5] can be described thus: Reduction of high glucose-induced apoptosis in REC (unknown origin) assessed as decrease in caspase 3 level at 10 uM after 15 to 45 mins by ELISA. The class given is functional.
A short description of assay [6]: Antiinflammatory activity in REC (unknown origin) assessed as decrease of high glucose-induced TNFalpha level at 0.05 to 10 uM after 30 to 60 mins by ELISA. The class given is functional.
Assay [7] concerns the target Beta-1 adrenergic receptor (Homo sapiens) (UniProt P08588). The assay is described as follows: Displacement of […]-iodocyanopindolol from beta1-adrenergic receptor in REC (unknown origin) at 0.01 to 10000 nM. (In general: In a radioligand displacement assay an active substance lowers the binding of a labelled ligand.)
Assay [8] has as its target Beta-1 adrenergic receptor (Rattus norvegicus) (UniProt P18090). Put plainly: Displacement of […]-iodocyanopindolol from beta1-adrenergic receptor in rat rMC-1 cells at 0.01 to 10000 nM. Type of assay: cell-based.
Assay [9] can be described thus: Antiinflammatory activity in REC (unknown origin) assessed as effect on high glucose-induced TNFalpha level at 0.05 to 10 uM after 30 to 60 mins by ELISA. The class given is functional.

The source made the active and inactive calls. The rule behind the calls is not given here.

Sequence of Beta-1 adrenergic receptor (Homo sapiens) (P08588 whole entry, looked up): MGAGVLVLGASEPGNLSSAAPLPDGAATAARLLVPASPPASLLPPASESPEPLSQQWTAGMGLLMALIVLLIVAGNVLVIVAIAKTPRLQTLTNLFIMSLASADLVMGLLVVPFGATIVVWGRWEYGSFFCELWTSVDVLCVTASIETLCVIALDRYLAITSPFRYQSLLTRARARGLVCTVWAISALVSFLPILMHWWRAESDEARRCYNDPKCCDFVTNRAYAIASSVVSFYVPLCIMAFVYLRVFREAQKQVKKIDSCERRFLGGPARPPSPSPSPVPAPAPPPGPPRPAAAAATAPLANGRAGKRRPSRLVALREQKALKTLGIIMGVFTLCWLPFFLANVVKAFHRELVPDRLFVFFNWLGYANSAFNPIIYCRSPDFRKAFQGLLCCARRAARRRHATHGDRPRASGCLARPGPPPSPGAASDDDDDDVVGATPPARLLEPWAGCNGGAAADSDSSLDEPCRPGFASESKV
Sequence of Beta-1 adrenergic receptor (Rattus norvegicus) (P18090 whole entry, looked up): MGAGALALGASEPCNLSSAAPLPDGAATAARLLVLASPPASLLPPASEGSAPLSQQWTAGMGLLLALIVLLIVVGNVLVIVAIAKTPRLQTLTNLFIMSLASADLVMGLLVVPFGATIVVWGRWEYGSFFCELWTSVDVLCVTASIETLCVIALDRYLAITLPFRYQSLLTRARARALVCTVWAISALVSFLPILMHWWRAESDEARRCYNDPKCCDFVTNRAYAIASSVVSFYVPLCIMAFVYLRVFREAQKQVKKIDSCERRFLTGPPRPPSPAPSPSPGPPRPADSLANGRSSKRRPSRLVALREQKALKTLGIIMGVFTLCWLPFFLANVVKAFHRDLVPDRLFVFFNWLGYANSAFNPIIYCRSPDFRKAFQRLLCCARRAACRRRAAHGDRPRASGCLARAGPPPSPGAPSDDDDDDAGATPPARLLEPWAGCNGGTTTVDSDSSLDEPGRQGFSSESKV

In the case of `O=C(NC[C@H](O)c1ccc(O)c(O)c1)N1CCOCC1`, the outcome in [1], in assay [2], in [3] and in [4] was inactive.
`O=C(NCCN(C[C@H](O)c1ccc(O)c(O)c1)C(=O)N1CCOCC1)N1CCOCC1`: the result in [5], in [1] and in [6] was Active. For the same compound, the outcome in assay [2] and in assay [4] was inactive. Also, the inhibition entry in assay [7] and in assay [8] was “inactive” each time.
In the case of `CC(C)NC[C@H](O)c1ccc(O)c(O)c1` (stereo in doubt; R-1), the outcome in assay [5], in [1] and in assay [4] was Active. Moreover, the outcome in [2] and in assay [9] was inactive.
For `CC(C)NC[C@H](O)c1ccc(O)c(O)c1` (stereo in doubt; S-1), the outcome in assay [1], in assay [2] and in assay [9] was inactive. For the same compound, the result in assay [4] was Active.
On to `Oc1ccc([C@@H](O)CNCCCN2CCOCC2)cc1O`, for which the outcome in [5] and in [1] was Active. Further, the outcome in assay [2], in [4] and in assay [9] was inactive.

The record behind these values is ChEMBL document CHEMBL3217654, “Beta-adrenergic receptor signaling by the isomers of isoproterenol and like drugs in retinal endothelial cells and Muller cells” (Medchemcomm, 2011).
